How the values were obtained:
Fadu cells = test: Fadu Cell Growth Inhibition Test (MTT Assay); format: cell-based; conditions: Homo sapiens, 72 h incubation
Method in brief: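 Fadu head and neck cancer cells in EMEM + 10% FBS, 6000 cells/well, dosed next day and incubated 72 h at 37 °C, 5% CO2. MTT 0.5 mg/ml for 3 h, DMSO solubilization, OD at 490 nm; inhibition ratio from positive and negative controls, IC50 from fitted curve.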

Her2 kinase = biological target: T1, Her2 kinase (Homo sapiens, UniProt P04626); test: Inhibition Activity Assay on Her2 Enzyme (ELISA, PGT substrate); format: biochemical; conditions: 8 min at 4° C., read-out: Inhibition Activity (EC50) on Her-2
T1 construct: purchased Cell Signaling Tech #7382
T1 sequence (P04626 676-1255 limits assumed): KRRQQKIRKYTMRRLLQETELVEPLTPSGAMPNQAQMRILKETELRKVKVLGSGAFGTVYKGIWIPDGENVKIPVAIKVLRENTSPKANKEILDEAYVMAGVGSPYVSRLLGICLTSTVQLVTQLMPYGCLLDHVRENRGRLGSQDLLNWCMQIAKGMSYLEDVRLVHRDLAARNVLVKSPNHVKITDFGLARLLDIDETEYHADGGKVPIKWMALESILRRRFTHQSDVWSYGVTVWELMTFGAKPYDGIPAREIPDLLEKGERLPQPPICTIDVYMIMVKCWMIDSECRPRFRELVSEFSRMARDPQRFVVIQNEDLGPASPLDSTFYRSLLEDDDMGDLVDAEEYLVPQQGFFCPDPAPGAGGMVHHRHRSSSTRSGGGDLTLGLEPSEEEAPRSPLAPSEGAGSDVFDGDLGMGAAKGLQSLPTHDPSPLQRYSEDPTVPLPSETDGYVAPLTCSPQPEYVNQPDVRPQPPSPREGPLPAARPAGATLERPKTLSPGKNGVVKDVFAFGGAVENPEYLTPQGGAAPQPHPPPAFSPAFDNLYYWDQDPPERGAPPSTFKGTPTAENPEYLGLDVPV
Method: Inhibition Activity Assay on Her2 Enzyme
1. Her2 kinase, Cell Signaling Tech, #7382, Lot. 2, reserved at −80° C.;
2. PBST: PBS+0.05% (v/v) Tween 20;
3. Confining liquid: 3% of BSA in PBS;
4. HEPEs buffer (2×): 50 mM HEPEs, 20 mM MgCl2, 0.1 mM MnCl2, 0.2 mM Na3VO4, adjusted to pH of 7.4 with NaOH;
5. PGT, Sigma, Cat#P0275): 2 mg/ml of stock solution was prepared by dissolving PBS, reserved at −20° C.
6. ATP: […] of stock solution was prepared by dissolving ddH2O, reserved at −20° C.;
7. Mice anti-phosphorylation tyrosine-HRP: Invitrogen-037720, 0.5 mg/ml, reserved at 4° C.;
8. TMB: Cell Signaling Tech, Cat #7004L;
9. DTT: 2.5 M of stock solution was prepared with ddH2O, reserved at −20° C. Before use, 2×HEPEs buffer was added in the solution to the final concentration of 1.25 mM.
1. 2 mg/ml of PGT was diluted with PBS to 0.2 mg/ml. 60 μl of the resulting solution was added in each well. The elisa plate was placed in a refrigerator at 4° C. and coated overnight;
2. The coating solution was discarded to stop the coating. The plate was washed four times with PBS, and then beaten to dryness;
3. The elisa plate was placed in a refrigerator at 4° C., drained out and stood for 3h.
4. […] of aqueous solution of each compound was diluted with ddH2O to a desirable concentration. Then, the solution was added in the corresponding elisa well by 25 μl/well;
5. 2 nM of ATP solution was diluted with ddH2O to 25 folds and then sufficiently mixed. The resulting solution was separately added in each elisa well by 25 μl per well (25 μl ddH2O was added in the negative control);
6. Her2 kinase was diluted with 2×TKB to 800 folds. The resulting solution was added in the elisa well by 50 μl per well. Then, the enzyme reaction began. Moreover, the elisa plate was immediately placed in a micro-oscillator. The reaction is carried out for 8 min at the temperature of 4° C.;
7. 2% of SDS was added in the elisa well to stop the reaction by adding 100 μl of SDS in each well. The solution was sufficiently mixed on the micro-oscillator to sufficiently mix for about 5 min;
8. The reaction solution was sucked out. The plate was washed four times with PBST. After the plate was beaten to dryness, 0.25 μg/ml of mice anti-phosphorylation tyrosine-HRP which was diluted with confining liquid was added in the plate by 100 μl per well, and then reacted for 30 min at the room temperature.
9. The antibody reaction solution was sucked out. The plate was washed six times with PBST. After the plate was beaten to dryness, TMB peroxidase substrate was added in the plate with 100 μl/well, and then reacted in the dark for 15 min at the room temperature;
10. 100 μl of 2N H2SO4 was added in the solution to stop the chromogenic reaction. After the bubbles were cleansed, the solution was measured in elisa at 450 nm.
OD values were converted in relative inhibition ratios according to following formula: Relative inhibition ratio=[1−(experiment values−NC mean values)/(PC mean values−NC mean values)]×100%

For `CN(C)C/C=C/C(=O)Nc1cc2c(Nc3ccc(F)c(Cl)c3)c(C#N)cnc2cc1OC1CCOC1` (centres unmarked) [Example 4, (E)-N-(4-(3-CHLORO-4-FLUOROPHENYLAMINO)-3-CYANO-7-(TETRAHYDROFURAN-3-YL-OXY)QUINOLIN-6-YL)-4-(DIMETHYLAMINO)-BUT-2-ENAMIDE], which IC50 (Fadu cells) is on record?
Its IC50 is 331 nM.

And the EC50 (Her2 kinase)?
The EC50 was 161 nM.

How did the EC50 (Her2 kinase) turn out when `C#Cc1cccc(Nc2c(C#N)cnc3cc(OC4CCOC4)c(NC(=O)/C=C/CN(C)C)cc23)c1` (centres unmarked) [Example 5, (E)-N-(3-CYANO-4-(3-ETHYNYLPHENYLAMINO)-7-(TETRAHYDROFURAN-3-YL-OXY)QUINOLIN-6-YL)-4-(DIMETHYLAMINO)-BUT-2-ENAMIDE] was run?
Its EC50 is 96 nM.

How did the IC50 (Fadu cells) turn out when `CN(C)C/C=C/C(=O)Nc1cc2c(Nc3ccc(OCc4cccc(F)c4)c(Cl)c3)c(C#N)cnc2cc1OC1CCOC1` (centres unmarked) [Example 9, (E)-N-(4-(4-(3-FLUOROBENZYLOXY)-3-CHLOROPHENYLAMINO)-3-CYANO-7-(TETRAHYDROFURAN-3-YL-OXY)QUINOLIN-6-YL)-4-(DIMETHYLAMINO)-BUT-2-ENAMIDE] was run?
The IC50 was 219 nM.

What about the EC50 (Her2 kinase) of the same molecule?
The EC50 was 221 nM.

With `CN(C)C/C=C/C(=O)Nc1cc2c(Nc3ccc(OCc4ccccn4)c(Cl)c3)c(C#N)cnc2cc1OC1CCOC1` (centres unmarked) [Example 21, (E)-N-(4-(3-CHLORO-4-(PYRIDIN-2-YL-METHOXY)PHENYLAMINO)-3-CYANO-7-(TETRAHYDROFURAN-3-YL-OXY)QUINOLIN-6-YL)-4-(DIMETHYLAMINO)-BUT-2-ENAMIDE] as the molecule, how does the EC50 (Her2 kinase) read?
Its EC50 is 234 nM.

Which IC50 (Fadu cells) does the source give for `CN(C)C/C=C/C(=O)Nc1cc2c(Nc3ccc(OCc4ccccn4)c(Cl)c3)c(C#N)cnc2cc1O[C@H]1CCOC1` [Example 138, (S,E)-N-(4-(3-CHLORO-4-(PYRIDIN-2-YL-METHOXY)PHENYLAMINO)-3-CYANO-7-(TETRAHYDROFURAN-3-YL-OXY)QUINOLIN-6-YL)-4-(DIMETHYLAMINO)-BUT-2-ENAMIDE] here?
The IC50 was 101 nM.

What about the EC50 (Her2 kinase) of the same molecule?
The EC50 was 244 nM.

How did the EC50 (Her2 kinase) turn out when `C#Cc1cccc(Nc2c(C#N)cnc3cc(O[C@H]4CCOC4)c(NC(=O)/C=C/CN(C)C)cc23)c1` [Example 140, (S,E)-N-(3-CYANO-4-(3-ETHYNYLPHENYLAMINO)-7-(TETRAHYDROFURAN-3-YL-OXY)QUINOLIN-6-YL)-4-(DIMETHYLAMINO)-BUT-2-ENAMIDE] was run?
The EC50 was 110 nM.

With `C#Cc1cccc(Nc2c(C#N)cnc3cc(O[C@H]4CCOC4)c(NC(=O)/C=C/CN(C)Cc4ccccc4)cc23)c1` [Example 149, (S,E)-N-(3-CYANO-4-(3-ETHYNYLPHENYLAMINO)-7-(TETRAHYDROFURAN-3-YL-OXY)QUINOLIN-6-YL)-4-(N-METHYLBENZYLAMINO)-BUT-2-ENAMIDE] as the molecule, how does the IC50 (Fadu cells) read?
Its IC50 is 163 nM.

Which IC50 (Fadu cells) does the source give for `CCN(CC)C/C=C/C(=O)Nc1cc2c(Nc3ccc(OCc4ccccn4)c(Cl)c3)c(C#N)cnc2cc1O[C@H]1CCOC1` [Example 150, (S,E)-N-(4-(3-CHLORO-4-(PYRIDIN-2-YL-METHOXY)PHENYLAMINO)-3-CYANO-7-(TETRAHYDROFURAN-3-YL-OXY)QUINOLIN-6-YL)-4-(DIETHYLAMINO)-BUT-2-ENAMIDE] here?
The IC50 was 207 nM.

`N#Cc1cnc2cc(O[C@H]3CCOC3)c(NC(=O)/C=C/CN3CCCCC3)cc2c1Nc1ccc(OCc2ccccn2)c(Cl)c1` [Example 151, (S,E)-N-(4-(3-CHLORO-4-(PYRIDIN-2-YL-METHOXY)PHENYLAMINO)-3-CYANO-7-(TETRAHYDROFURAN-3-YL-OXY)QUINOLIN-6-YL)-4-(PIPERIDIN-1-YL)-BUT-2-ENAMIDE] was tested. Which IC50 (Fadu cells) did it give?
Its IC50 is 244 nM.

`N#Cc1cnc2cc(O[C@H]3CCOC3)c(NC(=O)/C=C/CN3CCOCC3)cc2c1Nc1ccc(OCc2ccccn2)c(Cl)c1` [Example 152, (S,E)-N-(4-(3-CHLORO-4-(PYRIDIN-2-YL-METHOXY)PHENYLAMINO)-3-CYANO-7-(TETRAHYDROFURAN-3-YL-OXY)QUINOLIN-6-YL)-4-(MORPHOLIN-4-YL)-BUT-2-ENAMIDE] was tested. Which IC50 (Fadu cells) did it give?
The IC50 was 170 nM.

`CC(C)(C)NC/C=C/C(=O)Nc1cc2c(Nc3ccc(OCc4ccccn4)c(Cl)c3)c(C#N)cnc2cc1O[C@H]1CCOC1` [Example 153, (S,E)-N-(4-(3-CHLORO-4-(PYRIDIN-2-YL-METHOXY)PHENYLAMINO)-3-CYANO-7-(TETRAHYDROFURAN-3-YL-OXY)QUINOLIN-6-YL)-4-(TERT-BUTYLAMINO)-BUT-2-ENAMIDE] was tested. Which IC50 (Fadu cells) did it give?
Its IC50 is 231 nM.
